Experimental data from patent US10344019B2 (priority 2010, dated 2019).
Where two headings read alike, the source gives them in different places.

Columns and labels:
Test in all cases: microbe, parasite or virus in culture
Format in all cases: cell-based
[1] = test system: HCV 1a RLuc cells (dicistronic genotype 1a H77 replicon, RLuc reporter); settings: genotype 1a H77 replicon, read-out: 1a
Method: (§1) Evaluation of cell-based anti-HCV activity: Antiviral potency (EC50) was determined using a Renilla luciferase (RLuc)-based HCV replicon reporter assay. To perform the assay for genotype 1 and 2a JFH-1, HCV 1b RLuc cells (harboring a dicistronic genotype 1b Con1 replicon that encodes a RLuc reporter), or HCV 1a RLuc cells (harboring a dicistronic genotype 1a H77 replicon that encodes a RLuc reporter), or HCV 2a JFH-1 Rluc cells (harboring a dicistronic genotype 2a JFH-1 replicon that encodes a RLuc reporter) were dispensed into 384-well plates. To perform the assay for genotype 2a (with M31 present) or 2b, HCV 2a Rluc or 2b Rluc cells (both with M31 present) harboring a dicistronic NS5A chimeric genotype 2a JFH-1 replicon that encodes a RLuc reporter and either genotype 2a J6 strain NS5A gene or genotype 2b MD2b-1 NS5A gene (based on Los Alamos HCV database isolates, both with M31 present) respectively, were dispensed into 384-well plates. To perform the assay for genotype 3 and 4, HCV 3a RLuc or 4a Rluc cells harboring a dicistronic NS5A chimeric genotype 1b Con1 replicon that encodes a RLuc reporter and either a consensus genotype 3a NS5A gene or genotype 4a NS5A gene (based on Los Alamos HCV database isolates) respectively, were dispensed into 384-well plates. Compounds were re-suspended in DMSO at a concentration of 10 mM and serially diluted in DMSO either manually or using an automated pipeting instrument. Serially diluted compounds were mixed with cell culture media and added to the seeded cells. […] 72 hours later, cells were lysed and Renilla luciferase activity quantified as recommended by the manufacturer (Promega-Madison, Wis.). Non-linear regression was performed to calculate EC50 values.

[2] = test system: HCV 1b RLuc cells (dicistronic genotype 1b Con1 replicon, RLuc reporter)
Method: as §1

[3] = test system: HCV 2a JFH-1 Rluc cells (dicistronic genotype 2a JFH-1 replicon, RLuc reporter); settings: genotype 2a JFH-1 replicon, read-out: 2a JFH
Method: as §1

[4] = test system: HCV 3a RLuc cells (NS5A chimeric genotype 1b Con1 replicon with consensus genotype 3a NS5A gene)
Method: as §1

[5] = Hepatitis C virus, RLuc reporter
[6] = Hepatitis C virus, read-out: 1b (nM)
[7] = Hepatitis C virus, read-out: 3a, genotype 3a NS5A chimeric 1b Con1 replicon
[8] = Hepatitis C virus, 72 h, Table 2, 72 hours
[9] = Hepatitis C virus, 72 h, read-out: 1b (nM)
[10] = Hepatitis C virus, read-out: 3a, Table 2, genotype 3a NS5A chimeric replicon

Compound: COC(=O)N[C@H](C(=O)N1CCC[C@H]1c1nc2c([nH]1)COc1cc(-c3ccc4cc(-c5c[nH]c([C@@H]6CCCN6C(=O)[C@@H](c6ccccc6)N(C)C)n5)ccc4c3)ccc1-2)C1CCOCC1 [Example 182]
- EC50 [1, 5]: 0.001 to 0.999 nM
- EC50 [2, 6]: 0.05 nM
- EC50 [3, 5]: 0.001 to 0.999 nM
- EC50 [4, 7]: 0.001 to 0.99 nM

Compound: COC(=O)N[C@H](C(=O)N1CCC[C@H]1c1ncc(-c2ccc(-c3ccc4cc(-c5cnc([C@@H]6CCCN6C(=O)C(c6ccccc6)N(C)C)[nH]5)ccc4c3)cc2)[nH]1)C(C)C (stereo partly shown) [Example 110]
- EC50 [1, 5]: 0.001 to 0.999 nM
- EC50 [2, 6]: 0.009 nM
- EC50 [3, 5]: 0.001 to 0.999 nM
- EC50 [4, 7]: 0.001 to 0.99 nM

Compound: COC(=O)N[C@H](C(=O)N1CCC[C@H]1c1ncc(-c2ccc3cc(-c4ccc(-c5cnc([C@@H]6CCCN6C(=O)[C@@](C)(NC(=O)OC)c6ccccc6)[nH]5)cc4)ccc3c2)[nH]1)C(C)C [Example 163]
- EC50 [1, 5]: 1 to 44 nM
- EC50 [2, 6]: 0.031 nM
- EC50 [3, 5]: 1 to 44 nM
- EC50 [4, 7]: > 5 nM

Compound: COC(=O)N[C@H](C(=O)N1CCC[C@H]1c1ncc(-c2ccc(-c3ccc(-c4ccc(-c5cnc([C@@H]6CCCN6C(=O)[C@H](NC(=O)OC)c6ccccc6)[nH]5)cc4)cc3)cc2)[nH]1)C(C)C [Example 193]
- EC50 ([1]; RLuc reporter): 0.001 to 0.999 nM
- EC50 ([2]; read-out: 1b): 0.005 nM
- EC50 ([3]; RLuc reporter): 0.001 to 0.999 nM
- EC50 ([4]; read-out: 3a, genotype 3a NS5A chimeric 1b Con1 replicon): 0.001 to 0.99 nM

Compound: COC(=O)N[C@@H](CC(F)F)C(=O)N1CCC[C@H]1c1ncc(-c2ccc3cc(-c4ccc(-c5cnc([C@@H]6CCCN6C(=O)[C@H](NC(=O)OC)c6ccccc6)[nH]5)cc4)ccc3c2)[nH]1 [Example 127]
- EC50 [1, 5]: 0.001 to 0.999 nM
- EC50 [2, 6]: 0.006 nM
- EC50 [3, 5]: 0.001 to 0.999 nM
- EC50 [4, 7]: 0.001 to 0.99 nM

Compound: COC(=O)N[C@H](C(=O)N1CC(=O)C[C@H]1c1ncc(-c2ccc(-c3ccc4cc(-c5cnc([C@@H]6CCCN6C(=O)[C@@H](c6ccccc6)N(C)C)[nH]5)ccc4c3)cc2)[nH]1)C(C)C [Example 33]
- EC50 [1, 8]: 0.001 to 0.999 nM
- EC50 [2, 9]: 0.009 nM
- EC50 [3, 8]: 0.001 to 0.999 nM
- EC50 [4, 10]: 0.001 to 0.99 nM

Compound: COC(=O)N[C@H](C(=O)N1CCC[C@H]1c1ncc(-c2ccc(-c3ccc4cc(-c5cnc([C@@H]6CCCN6C(=O)[C@@H](NC(=O)OC)C(C)C)[nH]5)ccc4c3)cc2)[nH]1)c1ccc(Cl)cc1 [Example 106]
- EC50 [1, 5]: 1 to 44 nM
- EC50 [2, 6]: 0.024 nM
- EC50 [3, 5]: 1 to 44 nM
- EC50 [4, 7]: 1 to 4.99 nM

Compound: COC(=O)N[C@H](C(=O)N1CCC[C@H]1c1ncc(-c2ccc3cc(-c4ccc5c(c4)CCc4nc([C@@H]6CCCN6C(=O)[C@H](NC(=O)OC)c6ccccc6)[nH]c4-5)ccc3c2)[nH]1)C(C)C [Example 142]
- EC50 [1, 5]: 0.001 to 0.999 nM
- EC50 [2, 6]: 0.013 nM
- EC50 [3, 5]: 0.001 to 0.999 nM
- EC50 [4, 7]: 0.001 to 0.99 nM

Compound: COC(=O)N[C@H](C(=O)N1CCC[C@H]1c1ncc(-c2ccc(-c3ccc4cc(-c5cnc([C@@H]6CCCN6C(=O)[C@@H](NC(=O)OC)C(C)C)[nH]5)ccc4c3)cc2)[nH]1)c1ccccc1OC [Example 105]
- EC50 [1, 5]: 1 to 44 nM
- EC50 [2, 6]: 0.042 nM
- EC50 [3, 5]: 1 to 44 nM
- EC50 [4, 7]: 1 to 4.99 nM

Compound: COC(=O)N[C@H](C(=O)N1[C@@H]2CC[C@@H](C2)[C@H]1c1ncc(-c2ccc(-c3ccc4cc(-c5cnc([C@@H]6CC7(CC7)CN6C(=O)C(c6ccccc6)N6CCOCC6)[nH]5)ccc4c3)cc2)[nH]1)C(C)C (stereo partly shown) [Example 28]
- EC50 [1, 8]: 1 to 44 nM
- EC50 [2, 9]: 0.023 nM
- EC50 [3, 8]: 1 to 44 nM
- EC50 [4, 10]: 0.001 to 0.99 nM

Compound: COC(=O)N[C@H](C(=O)N1CCC[C@H]1c1ncc(-c2ccc3cc(-c4ccc(-c5cnc([C@@H]6CCCN6C(=O)C(c6ccc7c(c6)OCO7)N(C)C)[nH]5)cc4)ccc3c2)[nH]1)C(C)C (stereo partly shown) [Example 151]
- EC50 [1, 5]: 1 to 44 nM
- EC50 [2, 6]: 0.038 nM
- EC50 [3, 5]: 1 to 44 nM
- EC50 [4, 7]: 1 to 4.99 nM

Compound: COC(=O)NC(C(=O)N1CCC[C@@]1(F)c1ncc(-c2ccc(-c3ccc4cc(-c5cnc([C@@H]6CCCN6C(=O)[C@@H](NC(=O)OC)C(C)C)[nH]5)ccc4c3)cc2)[nH]1)c1ccc2c(c1)OCO2 (stereo partly shown) [Example 143]
- EC50 [1, 5]: 0.001 to 0.999 nM
- EC50 [2, 6]: 0.025 nM
- EC50 [3, 5]: 1 to 44 nM
- EC50 [4, 7]: > 5 nM

Compound: COC(=O)N(C)[C@H](C(=O)N1CCC[C@H]1c1ncc(-c2ccc3cc(-c4ccc(-c5cnc([C@@H]6CCCN6C(=O)C(c6ccccc6)N6CCOCC6)[nH]5)cc4)ccc3c2)[nH]1)C(C)C (stereo partly shown) [Example 119]
- EC50 [1, 5]: 0.001 to 0.999 nM
- EC50 [2, 6]: 0.02 nM
- EC50 [3, 5]: 0.001 to 0.999 nM
- EC50 [4, 7]: 0.001 to 0.99 nM
